In patent US10975035B2, “Bicyclic compounds” (Recurium IP Holdings, LLC, priority 2014, dated 2021):
Structures can show the parent of a compound that is named as a salt.

Tested on: male ICR mice
Test: Formalin paw test
Assay type: in vivo, mouse
Settings: for Early Phase: early/acute phase (0-10 minutes) after formalin; for Late Phase: late/tonic phase (10-35 minutes) after formalin
Method: One test compound or the vehicle was administered to each mouse in each test group (8 mice per group). Non-fasted male ICR mice weighing 23±3 g were used. Test compounds were administered at a concentration of 3 mg/kg, 10 mg/kg, 15 mg/kg, 30 mg/kg, 60 mg/kg, 100 mg/kg, 200 mg/kg or 300 mg/kg; morphine was administered at a concentration of 5 mg/kg; and acetaminophen was administered at a concentration of 200 mg/kg. The control group received the vehicle (5% DMSO/40% PEG400/20% HPbCD/Saline). After 30 or 60 minutes, a 2% formalin solution (0.02 mL) was injected into one hind paw (sub-plantar) of each mouse. Responses were measured every 5 minutes after the formalin injection for 35 minutes.
The results in Table A are for oral administration; the results in Table B are for intraperitoneal administration. In Tables A and B, ‘A’ designates <70 licks/sec, ‘B’ designates ≥70 licks/sec and <165 licks/sec, and ‘C’ designates ≥165 licks/sec.

[1] = intraperitoneal administration, 30 mg/kg

CC(=O)NCC12CC(C(C)(C)C)(C1)C2 [Compound 1, N-((3-(tert-butyl)bicyclo[1.1.1]pentan-1-yl)methyl)acetamide]
Early Phase (oral administration, 200 mg/kg): A (‘A’ designates <70 licks/sec) | Late Phase (oral administration, 200 mg/kg): A (‘A’ designates <70 licks/sec)

CC(C)(C)C12CC(CN)(C1)C2 [Compound 1c, (3-(tert-butyl)bicyclo[1.1.1]pentan-1-yl)methanamine]
Early Phase [1]: B (‘B’ designates ≥70 licks/sec and <165 licks/sec) | Late Phase [1]: B (‘B’ designates ≥70 licks/sec and <165 licks/sec)

CC(=O)NCC12CC(C(F)(F)F)(C1)C2 [Compound 2]
Early Phase (oral administration, 200 mg/kg): B (‘B’ designates ≥70 licks/sec and <165 licks/sec) | Late Phase (oral administration, 200 mg/kg): B (‘B’ designates ≥70 licks/sec and <165 licks/sec)

CC(=O)NC12CC(C(F)(F)F)(C1)C2 [Compound 4]
Early Phase (oral administration, 200 mg/kg): A (‘A’ designates <70 licks/sec) | Late Phase (oral administration, 200 mg/kg): C (‘C’ designates ≥165 licks/sec)

CC(=O)NC12CC(C)(C1)C2 [Compound 6]
Early Phase (oral administration, 200 mg/kg): B (‘B’ designates ≥70 licks/sec and <165 licks/sec) | Late Phase (oral administration, 200 mg/kg): B (‘B’ designates ≥70 licks/sec and <165 licks/sec)

CC(=O)NC12CC(C(C)C)(C1)C2 [Compound 8]
Early Phase (oral administration, 200 mg/kg): A (‘A’ designates <70 licks/sec) | Late Phase (oral administration, 200 mg/kg): A (‘A’ designates <70 licks/sec)

O=C(NC12CC(C1)C2)C(F)(F)F [Compound 9]
Early Phase (oral administration, 200 mg/kg): B (‘B’ designates ≥70 licks/sec and <165 licks/sec) | Late Phase (oral administration, 200 mg/kg): C (‘C’ designates ≥165 licks/sec)

CC(C)(C)C(=O)NC12CC(C(C)(C)C)(C1)C2 [Compound 11]
Early Phase (oral administration, 200 mg/kg): A (‘A’ designates <70 licks/sec) | Late Phase (oral administration, 200 mg/kg): A (‘A’ designates <70 licks/sec)

CC(C)(C)C(=O)NC12CC(C1)C2 [Compound 12]
Early Phase (oral administration, 200 mg/kg): B (‘B’ designates ≥70 licks/sec and <165 licks/sec) | Late Phase (oral administration, 200 mg/kg): C (‘C’ designates ≥165 licks/sec)

CC(=O)N(C)C12CC(C(C)(C)C)(C1)C2 [Compound 14]
Early Phase (oral administration, 200 mg/kg): A (‘A’ designates <70 licks/sec) | Late Phase (oral administration, 200 mg/kg): A (‘A’ designates <70 licks/sec)

CC(=O)NC12CC(C(C)(C)O)(C1)C2 [Compound 18]
Early Phase [1]: B (‘B’ designates ≥70 licks/sec and <165 licks/sec) | Late Phase [1]: C (‘C’ designates ≥165 licks/sec)

NCCC12CC(C(F)(F)F)(C1)C2 [Compound 21, 2-(3-(trifluoromethyl)bicyclo[1.1.1]pentan-1-yl)ethanamine, hydrochloride]
Early Phase [1]: B (‘B’ designates ≥70 licks/sec and <165 licks/sec) | Late Phase [1]: B (‘B’ designates ≥70 licks/sec and <165 licks/sec)
